Values of other authors in US20140128469A1, “[…]-BUTYL BUMETANIDE” (CONCERT PHARMACEUTICALS INC., priority 2011, published 2014).

Tests used:
[1] = target: T1, Na+K+2Cl— co-transporter (NKCC1) (Homo sapiens, UniProt P55011)
T1 sequence (P55011 1-1212): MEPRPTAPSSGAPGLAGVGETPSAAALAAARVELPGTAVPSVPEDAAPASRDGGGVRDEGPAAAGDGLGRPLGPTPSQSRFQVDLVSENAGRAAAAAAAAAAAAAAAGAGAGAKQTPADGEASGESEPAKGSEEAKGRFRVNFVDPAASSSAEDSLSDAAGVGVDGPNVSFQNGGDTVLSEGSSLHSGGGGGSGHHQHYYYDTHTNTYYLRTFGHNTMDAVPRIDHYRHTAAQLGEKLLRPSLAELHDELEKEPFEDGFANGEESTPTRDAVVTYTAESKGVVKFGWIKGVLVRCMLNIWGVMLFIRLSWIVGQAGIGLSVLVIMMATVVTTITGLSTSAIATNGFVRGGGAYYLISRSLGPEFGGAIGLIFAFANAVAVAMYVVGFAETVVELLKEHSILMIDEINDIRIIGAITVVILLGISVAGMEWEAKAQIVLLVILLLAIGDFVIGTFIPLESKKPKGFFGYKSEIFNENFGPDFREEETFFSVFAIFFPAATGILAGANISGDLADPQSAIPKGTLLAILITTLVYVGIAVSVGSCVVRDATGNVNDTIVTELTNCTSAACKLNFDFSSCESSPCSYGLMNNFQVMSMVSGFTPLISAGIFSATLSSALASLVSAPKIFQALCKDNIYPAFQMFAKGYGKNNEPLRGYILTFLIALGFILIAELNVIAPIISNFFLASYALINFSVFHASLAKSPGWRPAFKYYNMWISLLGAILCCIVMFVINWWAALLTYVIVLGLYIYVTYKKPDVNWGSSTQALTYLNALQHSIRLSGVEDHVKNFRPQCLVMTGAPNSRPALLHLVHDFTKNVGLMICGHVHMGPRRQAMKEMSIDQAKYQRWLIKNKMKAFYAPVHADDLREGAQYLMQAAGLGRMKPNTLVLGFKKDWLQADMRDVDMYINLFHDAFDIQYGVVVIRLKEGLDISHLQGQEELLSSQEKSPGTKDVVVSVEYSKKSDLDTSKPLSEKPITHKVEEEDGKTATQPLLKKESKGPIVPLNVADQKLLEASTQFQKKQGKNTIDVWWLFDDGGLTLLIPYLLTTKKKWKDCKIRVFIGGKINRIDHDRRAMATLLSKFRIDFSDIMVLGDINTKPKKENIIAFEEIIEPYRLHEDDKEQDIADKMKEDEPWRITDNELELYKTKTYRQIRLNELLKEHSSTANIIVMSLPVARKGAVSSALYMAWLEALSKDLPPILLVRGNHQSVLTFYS

models of migraine = details: in vivo
[2] = test system: models of neuropathic and nociceptive pain; details: in vivo
[3] = target: T2, Na+K+2Cl— co-transporter (NKCC2) (Homo sapiens, UniProt Q13621)
T2 sequence (Q13621 1-1099): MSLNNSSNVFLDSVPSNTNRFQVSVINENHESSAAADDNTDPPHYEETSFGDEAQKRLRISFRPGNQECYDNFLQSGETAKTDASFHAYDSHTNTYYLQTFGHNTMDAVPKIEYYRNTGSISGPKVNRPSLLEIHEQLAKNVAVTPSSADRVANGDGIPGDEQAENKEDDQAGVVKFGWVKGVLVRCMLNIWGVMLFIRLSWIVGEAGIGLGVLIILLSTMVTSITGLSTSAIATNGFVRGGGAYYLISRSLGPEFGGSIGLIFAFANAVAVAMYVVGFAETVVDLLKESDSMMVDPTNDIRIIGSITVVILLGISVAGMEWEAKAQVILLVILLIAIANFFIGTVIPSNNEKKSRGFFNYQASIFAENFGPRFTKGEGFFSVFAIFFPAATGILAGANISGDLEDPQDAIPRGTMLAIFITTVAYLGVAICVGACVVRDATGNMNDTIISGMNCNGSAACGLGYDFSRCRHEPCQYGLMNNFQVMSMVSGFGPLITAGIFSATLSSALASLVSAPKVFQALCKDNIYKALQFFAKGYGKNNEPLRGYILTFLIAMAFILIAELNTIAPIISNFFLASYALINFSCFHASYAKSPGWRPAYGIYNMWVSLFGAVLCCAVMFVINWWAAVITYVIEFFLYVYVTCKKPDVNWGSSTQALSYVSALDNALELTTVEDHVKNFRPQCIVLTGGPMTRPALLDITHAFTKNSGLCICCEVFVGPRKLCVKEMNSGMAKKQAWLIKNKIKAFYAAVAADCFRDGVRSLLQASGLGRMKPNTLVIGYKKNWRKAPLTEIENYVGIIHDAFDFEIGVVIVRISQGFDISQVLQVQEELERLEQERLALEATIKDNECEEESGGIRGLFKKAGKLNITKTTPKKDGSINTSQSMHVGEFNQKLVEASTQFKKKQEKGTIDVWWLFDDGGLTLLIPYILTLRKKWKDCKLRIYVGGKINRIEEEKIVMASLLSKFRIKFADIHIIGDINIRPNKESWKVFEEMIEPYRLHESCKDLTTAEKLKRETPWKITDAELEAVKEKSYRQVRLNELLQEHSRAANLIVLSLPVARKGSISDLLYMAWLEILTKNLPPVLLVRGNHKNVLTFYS

[4] = preclinical models
[5] = preclinical toxicology studies, see WO 2010/085352

For `CCCCN(CCCC)c1cc(C(=O)O)cc(S(N)(=O)=O)c1Oc1ccccc1` [N-butyl bumetanide], the “action on NKCC1” value [1] is given as “does not act on”, the “efficacy in models of migraine” value (models of migraine) is given as “effective” and the amelioration of seizures (models of epilepsy; epilepsy models resistant to currently-marketed anti-epileptic drugs) is given as “effective in ameliorating seizures”. The “efficacy in models of epilepsy” value (models of epilepsy; in vivo) was “effective”, the “efficacy in models of neuropathic and nociceptive pain” value [2] was “effective” and the GABAA modulation (GABAA) was “subtype-selective GABAA modulatory actions”. The “action on NKCC2” value [3] was “does not act on”, the diuresis [4] was “does not cause diuresis” and the therapeutic safety margin [5] was “large therapeutic safety margin”.
